# Entries after “also recorded” stand apart in the source; their conditions may differ. Where two headings read alike, the source gives them in different places.
# Tests used:
# CYP3A4 [1] = conditions: classification of the drugs included in the PBPK study; cited from earlier work
# Transporter Systems = conditions: substrate of the transporter named in the cell; FDA list; cited from earlier work
# [2] = Observed plasma concentrations of larotrectinib, single oral dose 100 mg alone and with itraconazole or rifampicin; type: in vivo, human; conditions: for Ratio AUC / Ratio Cmax: Observed, single oral dose 100 mg larotrectinib
# CYP3A4 [3] = target: CYP3A4 (Homo sapiens, UniProt P08684); conditions: following oral administration; cited from earlier work
# Chain of CYP3A4 (Homo sapiens, UniProt P08684) (P08684 whole entry): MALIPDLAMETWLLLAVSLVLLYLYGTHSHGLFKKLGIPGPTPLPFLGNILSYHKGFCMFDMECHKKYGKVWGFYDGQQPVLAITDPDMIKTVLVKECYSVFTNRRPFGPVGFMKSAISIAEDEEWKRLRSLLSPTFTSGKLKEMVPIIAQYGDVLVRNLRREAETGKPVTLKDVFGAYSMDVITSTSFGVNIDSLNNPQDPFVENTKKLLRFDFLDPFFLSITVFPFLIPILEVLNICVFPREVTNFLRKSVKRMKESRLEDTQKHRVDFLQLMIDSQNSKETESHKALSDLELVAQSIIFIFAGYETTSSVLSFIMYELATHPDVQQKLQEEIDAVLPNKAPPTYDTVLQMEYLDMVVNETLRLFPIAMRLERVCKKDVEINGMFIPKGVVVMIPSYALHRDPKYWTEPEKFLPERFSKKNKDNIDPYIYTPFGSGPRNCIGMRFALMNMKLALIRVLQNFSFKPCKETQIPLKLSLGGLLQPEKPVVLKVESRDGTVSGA
# CYP3A4 [4] = conditions: cited from earlier work
# CYP Enzymes = conditions: moderate inducer of the CYP named in the cell; FDA list filtered for moderate CYP3A4 inducers; cenobamate classification based on 200 mg daily dose; cited from earlier work
# [5] = plus itraconazole (200 mg QD, 5th day of 7) / control, healthy subjects
# [6] = plus rifampicin (600 mg QD, 10th day of 11) / control
# [7] = coadministration of larotrectinib with rifampicin 600 mg QD
smiles,measurement,setting,value
O=C1Nc2ccc(Cl)cc2[C@@](C#CC2CC2)(C(F)(F)F)O1 [efavirenz],CYP3A4 Effect,CYP3A4 [1],Moderate CYP3A4 induced
COc1ccccc1Oc1c(NS(=O)(=O)c2ccc(C(C)(C)C)cc2)nc(-c2ncccn2)nc1OCCO [bosentan],TRNSP SUB,Transporter Systems,OATP1B1;; also recorded: OATP1B3
OC(Cn1cncn1)(Cn1cncn1)c1ccc(F)cc1F [Fluconazole],CYP3A4 Effect,CYP3A4 [1],Moderate CYP3A4 inhibitor
O=C(Nc1cnn2ccc(N3CCC[C@@H]3c3cc(F)ccc3F)nc12)N1CC[C@H](O)C1 [larotrectinib],Ratio AUC,[2]; [5],4.31
same,Ratio Cmax,[2]; [5],2.81
same,Ratio AUC,[2]; [6],0.19
same,Ratio Cmax,[2]; [6],0.29
same,"observed reduction in exposure, AUC",[2]; [7],81%
same,"observed reduction in exposure, Cmax",[2]; [7],71%
same,metabolism,CYP3A4 [3],metabolized by CYP3A4
CCC(C)n1ncn(-c2ccc(N3CCN(c4ccc(OCC5COC(Cn6cncn6)(c6ccc(Cl)cc6Cl)O5)cc4)CC3)cc2)c1=O (centres unmarked) [Itraconazole],CYP3A4 Effect,CYP3A4 [1],Strong CYP3A4 inhibitor
CCC1(c2ccccc2)C(=O)NC(=O)NC1=O [phenobarbital],classification as CYP3A4 inducer,CYP3A4 [4]; listed by FDA,moderate inducer
same,classification as CYP3A4 inducer,CYP3A4 [4]; listed by a leading clinical support website (UpToDate),strong inducer
NC(=O)O[C@@H](Cn1ncnn1)c1ccccc1Cl [cenobamate],CYP Mod IND,CYP Enzymes,CYP3A4

# — patent US20240207274A1, “Larotrectinib and moderate CYP3A4 inducer” (Bayer Consumer Care AG, priority 2022, published 2024)
